In brackets after ≈: the same amount, converted by molar mass.
Experiments:
Sarcoma 180 solid tumor = assay: Therapeutical effect against Sarcoma 180 solid tumor; assay type: in vivo, ddY male mice; settings: 10 days after implantation
Experimental: Six ddY male mice each weighing about 20 g were used for each group, and 5×10^6 Sarcoma 180 solid tumor cells were implanted subcutaneously into the mice at the axilla. Twenty-four hours after the implantation, 0.2 ml of a phosphate buffer saline (hereinafter referred to as PBS) containing the DC-89 compound in the concentration shown in Table 3 was intraperitoneally administered once.
The composition of PBS was 0.8 g/dl NaCl, 0.02 g/dl KCl, […] Na2 HPO4 and 0.02 g/dl KH2 PO4 (pH 7.2).
For comparison, 0.2 ml of PBS containing mitomycin C was intraperitoneally administered 24 hours after implantation of the tumor cells.
Ten days after the implantation, T/C [T: average tumor volume (mm^3) of the test groups, C: average tumor volume (mm^3) of the control group which received an intraperitoneal administration of 0.2 ml of PBS] was determined.

[1] = test system: lymphocytic leukemia P388; assay: Therapeutical effect against lymphocytic leukemia P388; assay type: in vivo, male CDF1 mice
Experimental: Five male CDF1 mice each weighing about 22 g were used for each group, and 1×10^6 cells of lymphocytic leukemia P388 tumor cells were implanted intraperitoneally into the mice. Twenty-four hours after the implantation, 0.2 ml of PBS containing the DC-89 compound was intraperitoneally administered once. For comparison, 0.2 ml of PBS containing mitomycin C was intraperitoneally administered 24 hours after implantation of the tumor cells. The increased life span (T/C) [T: mean survival time (days) of the test groups, C: mean survival time (days) of the control group which received an intraperitoneal administration of 0.2 ml of PBS] after the implantation is shown in Table 4.

[2] = test system: Staphylococcus aureus ATCC 6538P; assay: Antibacterial activity, agar dilution method (MIC); assay type: cell-based; settings: ATCC6538P, pH 7, read-out: Minimum inhibitory concentration (MIC)
Experimental: (§1) The antibacterial activity was determined by the agar dilution method using a medium (pH 7) prepared by dissolving 3 g of Bacto-tryptone (Difco Laboratories), 3 g of meat extract, 1 g of yeast extract, 1 g of glucose and 16 g of agar in 1 liter of water.

[3] = test system: Klebsiella pneumoniae ATCC 10031; assay: Antibacterial activity, agar dilution method (MIC); assay type: cell-based; settings: ATCC10031; Klebsiella pneumoniae ATCC 10031, agar dilution, pH 7; read-out: Minimum inhibitory concentration (MIC)
Experimental: as §1

[4] = test system: Bacillus subtilis No. 10707; assay: Antibacterial activity, agar dilution method (MIC); assay type: cell-based; settings: Bacillus subtilis No. 10707, agar dilution, pH 7; read-out: Minimum inhibitory concentration (MIC)
Experimental: as §1

Escherichia coli ATCC 26 = assay: Antibacterial activity, agar dilution method (MIC); assay type: cell-based; settings: ATCC26; Escherichia coli ATCC 26, agar dilution, pH 7; read-out: Minimum inhibitory concentration (MIC)
Experimental: as §1

[5] = test system: Salmonella typhi ATCC 9992; assay: Antibacterial activity, agar dilution method (MIC); assay type: cell-based; settings: Salmonella enterica; Salmonella typhi ATCC 9992, agar dilution, pH 7; read-out: Minimum inhibitory concentration (MIC)
Experimental: as §1

[6] = Acute toxicity (LD50), intraperitoneal, mice; settings: mouse, in vivo, ip
Solubility = assay type: physicochemical
[7] = 4 mg/kg, i.p. 24 h after implantation
[8] = in methanol, ethanol, ethyl acetate, acetone, chloroform and dimethylsulfoxide

Row | Compound | T/C (average tumor volume) (Sarcoma 180 solid tumor; [7]) | Increased Life Span (T/C) (mean survival time) [1, 7] | T/C (average tumor volume) (Sarcoma 180 solid tumor; 3 mg/kg, i.p. once 24 h after implantation) | MIC [2] [µg/mL] | MIC [3] [µg/mL] | MIC [4] [µg/mL] | MIC (Escherichia coli ATCC 26) [µg/mL] | MIC [5] [µg/mL] | Increased Life Span (T/C) (mean survival time) ([1]; 0.125 mg/kg, i.p. once 24 h after implantation) | LD50 [6] [mg/kg] | Solubility (Solubility; [8]) | Solubility (Solubility; in water and n-hexane) | T/C (average tumor volume) (Sarcoma 180 solid tumor; 0.5 mg/kg, i.p. once 24 h after implantation) | Increased Life Span (T/C) (mean survival time) ([1]; 0.0156 mg/kg, i.p. once 24 h after implantation) | T/C (average tumor volume) (Sarcoma 180 solid tumor; 0.25 mg/kg, i.p. once 24 h after implantation) | Increased Life Span (T/C) (mean survival time) ([1]; 0.0781 mg/kg, i.p. once 24 h after implantation)
1 | CO[C@@]12[C@H](COC(N)=O)C3=C(C(=O)C(C)=C(N)C3=O)N1C[C@@H]1N[C@@H]12 [Mitomycin C, mitomycin C, reference compound] | 0.30 | 1.66 | – | – | – | – | – | – | – | – | – | – | – | – | – | –
2 | COC(=O)C1(C)Nc2c(O)cc3c(c2C1=O)C(CCl)CN3C(=O)c1cc2cc(OC)c(OC)c(OC)c2[nH]1 (centres unmarked) [DC-89A2] | – | – | 0.19 | 0.052 (≈ 0.0956 µM) | 0.42 (≈ 0.772 µM) | 0.0065 (≈ 0.0119 µM) | 5.2 (≈ 9.56 µM) | 10.4 (≈ 19.1 µM) | 1.35 | ~3.83 | readily soluble | sparingly soluble | – | – | – | –
3 | COC(=O)C1(C)Nc2c(O)cc3c(c2C1=O)CC(Br)CN3C(=O)c1cc2cc(OC)c(OC)c(OC)c2[nH]1 (centres unmarked) [DC-89B1] | – | – | – | 0.0008 (≈ 0.00136 µM) | 0.026 (≈ 0.0442 µM) | 0.013 (≈ 0.0221 µM) | 0.33 (≈ 0.561 µM) | 1.3 (≈ 2.21 µM) | – | ~0.37 | readily soluble | sparingly soluble | 0.22 | 1.35 | – | –
4 | COC(=O)C1(C)Nc2c(O)cc3c(c2C1=O)C(CBr)CN3C(=O)c1cc2cc(OC)c(OC)c(OC)c2[nH]1 (centres unmarked) [DC-89B2] | – | – | – | 0.0033 (≈ 0.00561 µM) | 0.1 (≈ 0.17 µM) | 0.0033 (≈ 0.00561 µM) | 1.3 (≈ 2.21 µM) | 2.6 (≈ 4.42 µM) | – | ~0.28 | readily soluble | sparingly soluble | – | – | 0.28 | 1.19

Source: US5138059A, “DC-89 compounds and process for their preparation” (priority 1988, dated 1992)
